Measured values published in patent US9206246B2, “Heparin/heparan sulfate-dependent inhibitors of activated protein C and uses thereof in treating hemophilic disorders” (Academia Sinica, priority 2012, dated 2015).
Entries after “also recorded” stand apart in the source; their conditions may differ.

Experiments:
[1] = test system: APC in FIX-deficient plasma; assay: APTT-based APC resistance assay in FIX-deficient plasma; assay type: biochemical; conditions: 50-200 nM DrKIn-I, 40 nM APC, 2 μg/ml heparan sulfate
Experimental: (§1) APTT-based clotting times were measured in normal, FVIII-deficient and FIX-deficient plasma containing 2 μg/ml heparan sulfate in the presence or absence of 40 nM APC and the indicated concentrations of DrKIn-I. Results shown are means±S.D. of at least three experiments.
(§2) 50 μl of normal plasma, FVIII-deficient plasma or FIX-deficient plasma supplemented with 2 μg/ml heparan sulfate (four disaccharide units long) was exposed to APC (40 nM) and varying concentrations of DrKIn-I (50-200 nM). 50 μl of activated partial thromboplastin (APTT) reagent (HYPHEN Biomed) was added and incubated for 1 minute at 37° C. Finally, clotting was initiated by adding 50 μl of 20 mM CaCl2. Coagulation times, which reflect the activities of APC, were recorded on a coagulometer (Hemostasis Analyzer KC-1; Sigma Diagnostics).

[2] = molecular target: T1, factor Xa (FXa) (Homo sapiens, UniProt P00742); assay: Selectivity profile, amidolytic activity of FXa; assay type: biochemical
T1 construct: factor Xa (FXa); purchased Haematologic Technologies
T1 sequence (P00742 235-488 limits assumed): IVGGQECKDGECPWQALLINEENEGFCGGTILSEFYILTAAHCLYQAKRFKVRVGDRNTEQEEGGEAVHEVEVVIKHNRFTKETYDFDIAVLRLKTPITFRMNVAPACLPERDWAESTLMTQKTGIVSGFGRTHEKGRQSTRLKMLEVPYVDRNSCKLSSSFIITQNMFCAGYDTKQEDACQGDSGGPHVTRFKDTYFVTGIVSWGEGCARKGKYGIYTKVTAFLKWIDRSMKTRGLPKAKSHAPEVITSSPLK
T1 sequence (P00742 41-179 limits assumed): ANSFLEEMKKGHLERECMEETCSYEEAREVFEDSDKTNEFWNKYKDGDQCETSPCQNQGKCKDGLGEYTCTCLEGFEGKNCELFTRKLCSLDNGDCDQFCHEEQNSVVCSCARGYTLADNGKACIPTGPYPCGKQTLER
Experimental: In each of these experiments, the molar ratio of protease active site to inhibitor was 1:1. The final concentrations of these proteases and their respective substrates were as follows: FXIIa (20 nM)/S-2302 (0.2 mM), FXIa (2.5 nM)/S-2366 (0.2 mM), FXa (10 nM)/S-2222 (1.3 mM), FIXa (200 nM)/Spectrozyme FIXa (1.3 mM), FVIIa (100 nM)/S-2288 (1.3 mM), thrombin (5 nM)/T-1637 (0.2 mM), kallikrein (5 nM)/S-2302 (0.2 mM), plasmin (20 nM)/S-2251 (0.2 mM), tPA (80 nM)/Spectrozyme tPA (0.2 mM), uPA (100 nM)/S-2288 (1.3 mM), APC (10 nM)/Spectrozyme PCa (0.2 mM) and trypsin (5 nM)/S-2222 (0.2 mM). Results shown are means±SD of at least three experiments.
DrKIn-I, with or without heparin, was screened for its inhibitory activity against trypsin and also against serine proteases in the coagulation cascade (FXIIa, FXIa, FXa, FIXa, FVIIa, thrombin and kallikrein) and in the fibrinolytic system (plasmin, tPA and uPA). The amidolytic activities of these proteases were determined in the presence or absence of equimolar concentrations of DrKIn-I using their respective chromogenic substrates.

[3] = test system: APC in FVIII-deficient plasma; assay: APTT-based APC resistance assay in FVIII-deficient plasma; assay type: biochemical; conditions: 200 nM DrKIn-I, 40 nM APC, 2 μg/ml heparan sulfate
Experimental: as §1, §2

[4] = test system: FIX-deficient plasma; assay: Thrombin generation assay in FIX-deficient plasma; assay type: biochemical; conditions: 100 nM TM, 2 μg/ml heparan sulfate
Experimental: (§3) (A) Representative thrombin generation curves in FVIII-deficient and FIX-deficient plasma performed in the presence of heparan sulfate (2 μg/ml), TM (100 nM) and varying concentrations of DrKIn-I (●, 0 nM; ▪, 20 nM; ▴, 40 nM; ▾, 80 nM; ◯, 200 nM). Dashed lines represent thrombin generation in the absence of TM and DrKIn-I. (B-C) Activity in FVIII-deficient (B) and FIX-deficient (C) plasma. Left panels show ETP; right panels, peak thrombin. For comparison, dashed lines represent the activity of normal plasma containing TM and heparan sulfate in the absence of the inhibitor. Results are represented as means±SEM of at least three independent experiments.
(§4) Briefly, 80 μl of either normal plasma, protein C-deficient plasma, FVIII-deficient plasma or FIX deficient plasma containing 2 μM corn trypsin inhibitor, 2 μg/ml heparan sulfate (four disaccharide units long), 30 μM DOPC/DOPS/DOPE (60:20:20) and 100 nM recombinant TM was incubated with 20 μl of 500-fold diluted TF solution (Innovin; Dade Behring) in the absence or presence of the indicated concentrations of DrKIn-I. Following incubation for 3 minutes at 37° C., thrombin generation was initiated by the dispensation of 20 μl of 2.5 mM fluorogenic substrate (Z-Gly-Gly-Arg-AMC.HCl) dissolved in 0.15 M NaCl, 60 mg/ml BSA and 100 mM CaCl2. […] Results were evaluated using the Technothrombin TGA software (Technoclone).

[5] = test system: protein C-deficient plasma; assay: Thrombin generation assay in protein C-deficient plasma; assay type: biochemical; conditions: TM-containing protein C-deficient plasma, heparan sulfate
Experimental: Thrombin generation in normal (A) and protein C-deficient (B) plasma. Experiments were performed in the presence of heparan sulfate (2 μg/ml). Solid lines represent thrombin generation in the presence of 100 nM thrombomodulin (TM) and varying concentrations of DrKIn-I (●, 0 nM; ▪, 40 nM; ▴, 80 nM; ◯, 200 nM). Dashed lines represent thrombin generation in the absence of TM and DrKIn-I.
Briefly, 80 μl of either normal plasma, protein C-deficient plasma, FVIII-deficient plasma or FIX deficient plasma containing 2 μM corn trypsin inhibitor, 2 μg/ml heparan sulfate (four disaccharide units long), 30 μM DOPC/DOPS/DOPE (60:20:20) and 100 nM recombinant TM was incubated with 20 μl of 500-fold diluted TF solution (Innovin; Dade Behring) in the absence or presence of the indicated concentrations of DrKIn-I. Following incubation for 3 minutes at 37° C., thrombin generation was initiated by the dispensation of 20 μl of 2.5 mM fluorogenic substrate (Z-Gly-Gly-Arg-AMC.HCl) dissolved in 0.15 M NaCl, 60 mg/ml BSA and 100 mM CaCl2. Measurements were taken at 1 minute intervals on a SpectraMax M2^e Microplate Reader using an excitation wavelength of 360 nm and an emission wavelength of 460 nm. In some assays, experiments were performed in the absence of thrombomodulin. Results were evaluated using the Technothrombin TGA software (Technoclone).

[6] = test system: FVIII-deficient plasma; assay: Thrombin generation assay in FVIII-deficient plasma; assay type: biochemical; conditions: 100 nM TM, 2 μg/ml heparan sulfate
Experimental: as §3, §4

[7] = Heparin binding assay (HiTrap Heparin column, NaCl gradient); conditions: 0.0-1.0 M NaCl gradient, 20 mM Tris-HCl pH 8.0
Experimental: A: 70 μg of DrKIn-I in 0.1 ml equilibrating buffer (20 mM Tris-HCl, pH 8.0) was applied to a 5 ml HiTrap Heparin column and eluted with a 50 ml gradient from 0.0-1.0 M NaCl. The salt concentration corresponding to the elution peak was determined to be 0.95 M. B, Binding of DrKIn-I (0.78, 1.56, 2.34, 3.13, 4.68 and 6.25 nM) to immobilized APC was assessed in buffer containing 10 mM HEPES, 0.15 M NaCl, 3 mM EDTA and 0.05% P20 at a flow rate of 60 μl/min at 25° C. […] The thin lines represent the global fit to the response data. […] Results shown are means±SD of three experiments. Representative binding traces are shown.

## DrKIn-I (CGGNDNNFETRKKCRQTCGAPRKGRPT)
[1]
  clotting time: dose-dependently decreased the clotting time
[2]
  inhibitory activity against factor Xa: no inhibitory activities
[3]
  clotting time: almost completely restored the clotting time to that observed in the absence of APC
[4]
  DrKIn-I concentration correcting ETP to normal levels: 160 nM
  peak thrombin level relative to normal plasma (partial correction): approximately 85%
[5]
  thrombin generation profile (APC-independent): did not alter the thrombin generation profile; also recorded: negligible effects
[6]
  DrKIn-I concentration correcting ETP to normal levels: 60 nM
  DrKIn-I concentration correcting peak thrombin to normal levels: 130 nM
[7]
  NaCl concentration at elution from heparin column: 0.95 M
